In patent publication US4120864A, “1,2,4-4H-triazole derivatives” (Rohm and Haas Company, priority 1972, dated 1978):
Where two headings read alike, the source gives them in different places.

How the values were obtained:
Botrytis cinerea = settings: in vivo
Phytophthora infestans = assay type: in vivo; settings: foliar application at 1200 ppm or root uptake from treated soil containing 20 ppm
[1] = tested on: wheat leaf rust, Puccinia recondita; experiment: whole plant or invertebrate; assay type: in vivo; settings: foliar; for pest or weed control at 280.212 g/ha: read-out: % Control (with 1" of rain), foliar, 0.25 lb., 1" of rain; for pest or weed control at 1120.85 g/ha: read-out: % Control (with 1" of rain), foliar, 1 lb., 1" of rain
[2] = tested on: rice blast, Piricularia oryzae; assay type: in vivo; settings: foliar application, 1200 ppm
[3] = tested on: wheat leaf rust, Puccinia recondita; experiment: whole plant or invertebrate; assay type: in vivo; settings: foliar; for pest or weed control at 280.212 g/ha: read-out: % Control (without rain), foliar, 0.25 lb.; for pest or weed control at 1120.85 g/ha: read-out: % Control (without rain), foliar, 1 lb.
[4] = tested on: wheat leaf rust, Puccinia recondita; experiment: Foliar systemic activity on leaf rust; assay type: in vivo
Excerpt: Another type of systemic test was run in which pots of approximately 5 inch high wheat plants were sprayed with varying concentrations of the test compound. Thirty-six hours later they were sprayed six minutes in a rain machine which amounted to about one inch of normal rainfall. The plants were then placed in a greenhouse for 7 days and then inoculated with a spore suspension of wheat leaf rust, Puccinia recondita. About 7 days later lesion counts were made on ten leaves representing the sprayed leaves and new growth from each replicate and compared with similar pots of wheat plants which were untreated with a chemical and the percent disease control determined. Disease control on the new growth is a measure of systemic activity. The commercial product known by the trademarked name Plantvax, which is 2,3-dihydro-5-carboxanilido-6-methyl-1,4-oxathiin-4,4-dioxide, was used as a standard.

[5] = tested on: wheat leaf rust, Puccinia recondita; assay type: in vivo
[6] = tested on: leaf rust on winter wheat; experiment: Systemic field test, leaf rust on winter wheat; assay type: in vivo; settings: 46 days after application, untreated 1109
[7] = tested on: leaf rust on spring wheat; experiment: Systemic field test, leaf rust on spring wheat; assay type: in vivo; settings: 36 days after treatment
Pythium ultimum = settings: in vivo

## 4-(2-ethylhexyl)-1,2,4-triazole [Example 11]
Botrytis cinerea
  control of Botrytis cinerea on broad bean: 50-85%

## CCCCCCCCn1cnnc1 [Example 10, 4-n-octyl-1,2,4-triazole]
Phytophthora infestans
  control of Phytophthora infestans: good control

## CCCCCCCCCCCCn1cnnc1 [Example 13, 4-n-dodecyl-1,2,4-triazole]
[1]
  pest or weed control at 280.212 g/ha: 0%
  pest or weed control at 1120.85 g/ha: 30%
[2]
  control of rice blast, Piricularia oryzae: 95-100%
[3]
  pest or weed control at 280.212 g/ha: 20%
  pest or weed control at 1120.85 g/ha: 60%

## OCCCn1cnnc1 [Example 18, 4-(3-hydroxypropyl)-1,2,4-triazole]
[1]
  pest or weed control at 280.212 g/ha: 0%
  pest or weed control at 1120.85 g/ha: 0%
Phytophthora infestans
  control of Phytophthora infestans: good control
[3]
  pest or weed control at 280.212 g/ha: 0%
  pest or weed control at 1120.85 g/ha: 0%

## CCOCCn1cnnc1 [Example 24, 4-(2-ethoxyethyl)-1,2,4-triazole]
[1]
  pest or weed control at 280.212 g/ha: 50%
  pest or weed control at 1120.85 g/ha: 95%
Phytophthora infestans
  control of Phytophthora infestans: good control
[3]
  pest or weed control at 280.212 g/ha: 80%
  pest or weed control at 1120.85 g/ha: 95%

## c1ccc(OCCn2cnnc2)cc1 [Example 25, 4-(2-phenoxyethyl)-1,2,4-triazole]
[1]
  pest or weed control at 280.212 g/ha: 0%
  pest or weed control at 1120.85 g/ha: 0%
Phytophthora infestans
  control of Phytophthora infestans: good control
[3]
  pest or weed control at 280.212 g/ha: 0%
  pest or weed control at 1120.85 g/ha: 0%

## CCOCCCn1cnnc1 [Example 47]
[1]
  pest or weed control at 280.212 g/ha: 30%
  pest or weed control at 1120.85 g/ha: 55%
Phytophthora infestans
  control of Phytophthora infestans: good control
[3]
  pest or weed control at 280.212 g/ha: 80%
  pest or weed control at 1120.85 g/ha: 80%

## CCCCn1cnnc1S [Example 76, 3-mercapto-4-n-butyl-1,2,4-triazole]
[4]; 1/2 lb./100 gal.
  % Rust Control, New growth: 90%
  % Rust Control, Sprayed Leaf: 97%
[4]; 1/6 lb./100 gal.
  % Rust Control, New growth: 77%
  % Rust Control, Sprayed Leaf: 88%
[4]; 1/12 lb./100 gal.
  % Rust Control, New growth: 75%
  % Rust Control, Sprayed Leaf: 80%
[5]; 2.5 ppm in soil
  % Systemic Wheat Leaf Rust Control: 83%
[5]; 5 ppm in soil
  % Systemic Wheat Leaf Rust Control: 97%
[5]; 10 ppm in soil
  % Systemic Wheat Leaf Rust Control: 100%
[1]
  pest or weed control at 280.212 g/ha: 100%
  pest or weed control at 1120.85 g/ha: 100%
[6]; 0.5 lbs./acre
  No. of lesions/800 leaves: 453 lesions/800 leaves
[6]; 1 lbs./acre
  No. of lesions/800 leaves: 239 lesions/800 leaves
[6]; 2 lbs./acre
  No. of lesions/800 leaves: 89 lesions/800 leaves
[7]; 0.5 lbs./acre
  % Leaves infected: 23%
[7]; 1 lbs./acre
  % Leaves infected: 10%
[7]; 2 lbs./acre
  % Leaves infected: 4%
[3]
  pest or weed control at 280.212 g/ha: 100%
  pest or weed control at 1120.85 g/ha: 100%

## CCCCn1c(S)nnc1C(=O)O [Example 94, 3-mercapto-4-n-butyl-5-carboxy-1,2,4-triazole]
[4]; 1/2 lb./100 gal.
  % Rust Control, New growth: 86%
  % Rust Control, Sprayed Leaf: 99%
[4]; 1/6 lb./100 gal.
  % Rust Control, New growth: 73%
  % Rust Control, Sprayed Leaf: 91%
[4]; 1/12 lb./100 gal.
  % Rust Control, New growth: 61%
  % Rust Control, Sprayed Leaf: 71%
[5]; 2.5 ppm in soil
  % Systemic Wheat Leaf Rust Control: 95%
[5]; 5 ppm in soil
  % Systemic Wheat Leaf Rust Control: 99%
[5]; 10 ppm in soil
  % Systemic Wheat Leaf Rust Control: 100%
[1]
  pest or weed control at 280.212 g/ha: 82%
  pest or weed control at 1120.85 g/ha: 83%
[7]; 0.5 lbs./acre
  % Leaves infected: 35%
[7]; 1 lbs./acre
  % Leaves infected: 17%
[7]; 2 lbs./acre
  % Leaves infected: 7%
[3]
  pest or weed control at 280.212 g/ha: 100%
  pest or weed control at 1120.85 g/ha: 100%

## CCCCn1cnnc1SCC(N)=O [Example 111, 3-carbamoylmethylmercapto-4-n butyl-1,2,4-triazole]
[4]; 1/2 lb./100 gal.
  % Rust Control, New growth: 88%
  % Rust Control, Sprayed Leaf: 88%
[4]; 1/6 lb./100 gal.
  % Rust Control, New growth: 59%
  % Rust Control, Sprayed Leaf: 51%
[4]; 1/12 lb./100 gal.
  % Rust Control, New growth: 38%
  % Rust Control, Sprayed Leaf: 49%
[5]; 2.5 ppm in soil
  % Systemic Wheat Leaf Rust Control: 76%
[5]; 5 ppm in soil
  % Systemic Wheat Leaf Rust Control: 91%
[5]; 10 ppm in soil
  % Systemic Wheat Leaf Rust Control: 92%
[1]
  pest or weed control at 280.212 g/ha: 93%
  pest or weed control at 1120.85 g/ha: 100%
[3]
  pest or weed control at 280.212 g/ha: 100%
  pest or weed control at 1120.85 g/ha: 100%

## CCCCn1cnnc1SC(=O)NC [Example 114, 3-methylcarbamoylmercapto-4-n-butyl-1,2,4-triazole]
[4]; 1/2 lb./100 gal.
  % Rust Control, New growth: 98%
  % Rust Control, Sprayed Leaf: 96%
[4]; 1/6 lb./100 gal.
  % Rust Control, New growth: 79%
  % Rust Control, Sprayed Leaf: 83%
[4]; 1/12 lb./100 gal.
  % Rust Control, New growth: 67%
  % Rust Control, Sprayed Leaf: 68%
[5]; 2.5 ppm in soil
  % Systemic Wheat Leaf Rust Control: 96%
[5]; 5 ppm in soil
  % Systemic Wheat Leaf Rust Control: 100%
[5]; 10 ppm in soil
  % Systemic Wheat Leaf Rust Control: 100%
[1]
  pest or weed control at 280.212 g/ha: 100%
  pest or weed control at 1120.85 g/ha: 100%
[3]
  pest or weed control at 280.212 g/ha: 100%
  pest or weed control at 1120.85 g/ha: 100%

## CCCCn1cnnc1SC(=O)c1ccc(OC)cc1 [Example 121, 3-(4-methoxybenzoylmercapto)-4-n-butyl-1,2,4-triazole]
Pythium ultimum
  control of Pythium ultimum: excellent control
[4]; 1/2 lb./100 gal.
  % Rust Control, New growth: 92%
  % Rust Control, Sprayed Leaf: 95%
[4]; 1/6 lb./100 gal.
  % Rust Control, New growth: 79%
  % Rust Control, Sprayed Leaf: 81%
[4]; 1/12 lb./100 gal.
  % Rust Control, New growth: 77%
  % Rust Control, Sprayed Leaf: 91%
[5]; 2.5 ppm in soil
  % Systemic Wheat Leaf Rust Control: 98%
[5]; 5 ppm in soil
  % Systemic Wheat Leaf Rust Control: 100%
[5]; 10 ppm in soil
  % Systemic Wheat Leaf Rust Control: 100%
[1]
  pest or weed control at 280.212 g/ha: 100%
  pest or weed control at 1120.85 g/ha: 100%
[3]
  pest or weed control at 280.212 g/ha: 90%
  pest or weed control at 1120.85 g/ha: 98%

## CCCCn1cnnc1Sc1ccc([N+](=O)[O-])cc1[N+](=O)[O-] [Example 127, 3-(2,4-dinitrophenylmercapto)-4-n-butyl-1,2,4-triazole]
[4]; 1/2 lb./100 gal.
  % Rust Control, New growth: 81%
  % Rust Control, Sprayed Leaf: 98%
[4]; 1/6 lb./100 gal.
  % Rust Control, New growth: 69%
  % Rust Control, Sprayed Leaf: 93%
[4]; 1/12 lb./100 gal.
  % Rust Control, New growth: 57%
  % Rust Control, Sprayed Leaf: 81%
[5]; 2.5 ppm in soil
  % Systemic Wheat Leaf Rust Control: 67%
[5]; 5 ppm in soil
  % Systemic Wheat Leaf Rust Control: 94%
[5]; 10 ppm in soil
  % Systemic Wheat Leaf Rust Control: 100%
[1]
  pest or weed control at 1120.85 g/ha: 100%
[3]
  pest or weed control at 280.212 g/ha: 100%
  pest or weed control at 1120.85 g/ha: 100%

## CC1=C(C(=O)Nc2ccccc2)S(=O)(=O)CCO1 [Plantvax, 2,3-dihydro-5-carboxanilido-6-methyl-1,4-oxathiin-4,4-dioxide, reference compound]
[4]; 1/2 lb./100 gal.
  % Rust Control, New growth: 38%
  % Rust Control, Sprayed Leaf: 49%
[4]; 1/6 lb./100 gal.
  % Rust Control, New growth: 32%
  % Rust Control, Sprayed Leaf: 37%
[4]; 1/12 lb./100 gal.
  % Rust Control, Sprayed Leaf: 3%
[6]; 0.5 lbs./acre
  No. of lesions/800 leaves: 1113 lesions/800 leaves
[6]; 1 lbs./acre
  No. of lesions/800 leaves: 1017 lesions/800 leaves
[6]; 2 lbs./acre
  No. of lesions/800 leaves: 690 lesions/800 leaves
[7]; 0.5 lbs./acre
  % Leaves infected: 79%
[7]; 1 lbs./acre
  % Leaves infected: 78%
[7]; 2 lbs./acre
  % Leaves infected: 75%
